This assay deals with bacteria causing the soft rot (Erwinia carotovora). Nature of the assay: Inhibition test of growth of bacteria causing soft rot, Reference Test Example 3. Type of assay: cell-based. Particulars: for formed colonies (growth state), grade: PSA medium, 27 degrees Celsius, 2 days. The source says: Inhibition test of growth of bacteria causing soft rot of potato An inhibition test of the growth of bacteria causing the soft rot was done, when a control agent was directly applied to the bacteria causing the soft rot. A given volume of each pesticide of triflumizol (TRIFUMIN WP [trade name] manufactured by Nippon Soda Co., Ltd.), chlorothalonil (Daconil 1000 [trade name], manufactured by Sumitomo Chemical Company, Limited) and streptomycin (Mycin Wettable powder [trade name] manufactured by Hokko Chemical Industry Co., Ltd.) was added together with a suspension of the bacteria causing the soft rot (Erwinia carotovora) to a preliminarily dissolved PSA culture medium (55 degrees Celsius) for subsequent thorough agitation, which was then spread on a plate for culturing at 27 degrees Celsius for 2 days, to examine the growth state. Subsequently, the formed colonies were examined according to the following three grades. • +: at the same level as the level of non-treated lot. Plus or minus: apparently less than the colonies of the non-treated lot. • −: almost no colonies observed.

In the case of `[H]/N=C(/N)N[C@H]1[C@H](O)[C@@H](O)[C@H](O[C@@H]2O[C@@H](C)[C@](O)(C=O)[C@H]2O[C@@H]2O[C@@H](CO)[C@H](O)[C@@H](O)[C@@H]2NC)[C@@H](N/C(N)=N\[H])[C@@H]1O` [Streptomycin], the “formed colonies (growth state), grade” value (1 ppm active ingredient) was “+, ±” and the “formed colonies (growth state), grade” value (10 ppm active ingredient) is listed as “−, −”. The “direct antibacterial activity against Erwinia carotovora (in words)” value (active ingredient concentration of 10 ppm) is “exerted a direct antibacterial activity”.
